Measured values: US20240123012A1 (priority 2021, published 2024)

Target: human recombinant DHODH (rhDHODH) (Homo sapiens, UniProt Q02127)
Test: Inhibition of the activity of rh DHODH on its colorimetric substrate (OD at 600 nm)
Format: biochemical
Method: This mother tincture constitutes the sample to be tested. The measurement of the inhibition of the action of DHODH on its substrate is carried out in a conventional multi-well plate with a transparent wall. The wells contain the samples to be tested, the DHODH and its substrate.
To evaluate the inhibition of the DHODH by the sample, the parameter of the optical density called “OD” is used. Indeed, in each well, the “OD” is measured at a wavelength of 600 nm, at several time intervals, for a duration of 5 min.
More specifically, each well comprises the diluted or non-diluted sample, the enzyme of the DHODH and its colorimetric substrate diluted in a test buffer. Said colorimetric substrate comprises DHO which can be converted into ORO by action of the DHODH.
Over time, the consumption of the colorimetric substrate DHO by the enzyme DHODH results in a reduction in the OD. This decrease indicates the conversion of the colored DHO into uncolored ORO by the activity of the DHODH. In other words, the DHO is consumed, […] to ORO by the activity of the DHODH, which causes a modification of the OD measured.
In the event of inhibition of the activity of the DHODH by the sample, the OD remains stable over time. Indeed, in the case of inhibition, the colorimetric DHO substrate will not be transformed by the DHODH into ORO, the OD therefore will remain that of the initial DHO.
To carry out the experiments, the following were used: • a solution of class 1 enzyme called “rhDHODH” for “human recombinant DHODH”, • a test buffer consisting of 50 mM Tris, 150 mM KCl and 0.1% Triton® X-100, at pH 8, • a substrate mixture of DHODH containing: 2 mM of L-dihydroorotic called “DHO”, 0.2 mM of decylubiquinone called “Q” and 0.12 mM of 2,6-Dichloroindophenol sodium salt hydrate called “DP IP” in the test buffer, • a mother tincture sample of a leaf extract of a Neurolaena lobata plant, diluted or not, in a dilution buffer consisting of dimethyl sulfoxide called “DMSO”.
To start the protocol, each dilution of the sample H1 or H2 was placed in the presence of the rh DHODH enzyme and the mixture of substrate within a well. In order to obtain an average of OD measured for a sample concentration H1 or H2, triplicates were carried out for each of the dilution concentrations of H1 and H2.
The amount of enzyme added in each well is the same. In the protocol, the enzyme is added to the well so as to have a concentration of 0.06 μg of rh DHODH enzyme/mL of total solution in the well.
% of activity=(ΔH1×100)/Δ of the negative control.
The % of inhibition is calculated by the following formula: 100—the value of the % of activity.

Chain of human recombinant DHODH (rhDHODH) (Q02127 whole entry): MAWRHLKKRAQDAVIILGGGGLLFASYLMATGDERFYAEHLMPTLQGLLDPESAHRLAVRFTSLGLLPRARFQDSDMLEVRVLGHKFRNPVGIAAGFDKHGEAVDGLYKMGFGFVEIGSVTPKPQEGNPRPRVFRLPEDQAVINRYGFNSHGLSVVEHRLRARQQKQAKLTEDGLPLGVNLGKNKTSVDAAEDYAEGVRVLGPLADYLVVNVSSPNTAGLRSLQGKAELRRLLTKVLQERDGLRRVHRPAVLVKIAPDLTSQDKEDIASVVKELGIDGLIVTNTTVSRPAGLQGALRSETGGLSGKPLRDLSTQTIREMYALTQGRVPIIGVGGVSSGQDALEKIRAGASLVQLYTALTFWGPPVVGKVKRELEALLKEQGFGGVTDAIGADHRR

Structure (SMILES): Cc1c(-c2ccc(-c3ccccc3F)cc2)nc2ccc(F)cc2c1C(=O)O [brequinar]
- activity at 0.001 µg/mL: 6.25%
- activity at 0.01 µg/mL: 7.21%
- activity at 0.1 µg/mL: 0%
- activity at 1 µg/mL: 0%
- Δ (OD at 0 s minus OD at 275 s) (0.001 μg/mL): 0.013
- inhibition at 0.001 µg/mL (0.001 μg/mL, 0-275 s): 93.8%
- OD at 600 nm (0.001 μg/mL, 0 s): 0.339
- OD at 600 nm (0.001 μg/mL, 55 s): 0.340
- OD at 600 nm (0.001 μg/mL, 110 s): 0.333
- OD at 600 nm (0.001 μg/mL, 165 s): 0.331
- OD at 600 nm (0.001 μg/mL, 220 s): 0.328
- OD at 600 nm (0.001 μg/mL, 275 s): 0.326
- Δ (OD at 0 s minus OD at 275 s) (0.01 μg/mL): 0.015
- inhibition at 0.01 µg/mL (0.01 μg/mL, 0-275 s): 92.8%
- OD at 600 nm (0.01 μg/mL, 0 s): 0.344
- OD at 600 nm (0.01 μg/mL, 55 s): 0.345
- OD at 600 nm (0.01 μg/mL, 110 s): 0.339
- OD at 600 nm (0.01 μg/mL, 165 s): 0.336
- OD at 600 nm (0.01 μg/mL, 220 s): 0.348
- OD at 600 nm (0.01 μg/mL, 275 s): 0.329
- Δ (OD at 0 s minus OD at 275 s) (0.1 μg/mL): 0.000
- inhibition at 0.1 µg/mL (0.1 μg/mL, 0-275 s): 100%
- OD at 600 nm (0.1 μg/mL, 0 s): 0.349
- OD at 600 nm (0.1 μg/mL, 55 s): 0.348
- OD at 600 nm (0.1 μg/mL, 110 s): 0.353
- OD at 600 nm (0.1 μg/mL, 165 s): 0.345
- OD at 600 nm (0.1 μg/mL, 220 s): 0.350
- OD at 600 nm (0.1 μg/mL, 275 s): 0.349
- Δ (OD at 0 s minus OD at 275 s) (1 μg/mL): 0.001
- inhibition at 1 µg/mL (1 μg/mL, 0-275 s): 100%
- OD at 600 nm (1 μg/mL, 0 s): 0.354
- OD at 600 nm (1 μg/mL, 55 s): 0.354
- OD at 600 nm (1 μg/mL, 110 s): 0.352
- OD at 600 nm (1 μg/mL, 165 s): 0.361
- OD at 600 nm (1 μg/mL, 220 s): 0.357
- OD at 600 nm (1 μg/mL, 275 s): 0.353
